{"source": "ChEMBL document CHEMBL6127052", "about": "“Discovery of membrane-targeting amphiphilic honokiol derivatives containing an oxazolethione moiety to combat methicillin-resistant Staphylococcus aureus (MRSA) infections” (Eur J Med Chem, 2024)", "key": {"Staphylococcus aureus [1]": {"tested_on": "Staphylococcus aureus", "assay": "Antibacterial activity against Staphylococcus aureus ATCC 29213 by CLSI based micro-broth dilution method", "type": "functional"}, "[2]": {"assay": "Toxicity in KM mouse infected with methicillin-resistant Staphylococcus aureus clinical isolate M12 assessed as damage in lung at 5 to 10 mg/kg, sc measured after 24 hrs by H and E staining based analysis", "type": "organism-based", "settings": "in vivo, dose 5-10 mg/kg"}, "Staphylococcus aureus [3]": {"tested_on": "Staphylococcus aureus", "assay": "Antibacterial activity against methicillin-resistant Staphylococcus aureus clinical isolate M12 infected in sepsis BALB/c mouse model assessed as decrease in pathological change in red medulla of spleen at 12 mg/kg, ip administered consecutively at 12 hr-interval for 24 hrs measured after 24 hrs post-last dose by H and E staining based analysis", "type": "functional, organism-based", "settings": "time 48.0 hrs"}, "[4]": {"assay": "Toxicity in KM mouse infected with methicillin-resistant Staphylococcus aureus clinical isolate M12 assessed as damage in heart at 5 to 10 mg/kg, sc measured after 24 hrs by H and E staining based analysis", "type": "organism-based", "settings": "in vivo, dose 5-10 mg/kg"}, "Staphylococcus aureus [5]": {"tested_on": "Staphylococcus aureus", "assay": "Antibacterial activity against methicillin-resistant Staphylococcus aureus clinical isolate M12 infected in sepsis BALB/c mouse model assessed as decrease in necrosis in hepatocytes at 12 mg/kg, ip administered consecutively at 12 hr-interval for 24 hrs measured after 24 hrs post-last dose by H and E staining based analysis", "type": "functional, organism-based", "settings": "time 48.0 hrs"}, "[6]": {"assay": "Toxicity in KM mouse assessed as change in MCV level at 20 mg/kg, sc measured after 24 hrs", "type": "organism-based", "settings": "in vivo"}, "[7]": {"assay": "Toxicity in KM mouse assessed as clear skin section at 20 mg/kg, sc measured after 24 hrs by H and E staining based analysis", "type": "organism-based", "settings": "in vivo"}, "Staphylococcus aureus [8]": {"tested_on": "Staphylococcus aureus", "assay": "Antibacterial activity against methicillin-resistant Staphylococcus aureus clinical isolate M12 infected in sepsis BALB/c mouse model assessed as decrease in bacterial load in liver at 12 mg/kg, ip administered consecutively at 12 hr-interval for 24 hrs measured after 24 hrs post-last dose", "type": "functional", "settings": "time 48 hrs"}, "[9]": {"assay": "Toxicity in KM mouse assessed as pathological change in skin at 20 mg/kg, sc measured after 24 hrs by H and E staining based analysis", "type": "organism-based", "settings": "in vivo"}, "[10]": {"assay": "Toxicity in KM mouse assessed as degeneration of renal tubular epithelial cells at 20 mg/kg, sc measured after 24 hrs by H and E staining based analysis", "type": "organism-based", "settings": "in vivo"}, "[11]": {"assay": "Toxicity in KM mouse assessed as inflammatory cell infiltration in cardiac muscle fibers at 20 mg/kg, sc measured after 24 hrs by H and E staining based analysis", "type": "organism-based", "settings": "in vivo"}, "[12]": {"assay": "Toxicity in BALB/c mouse assessed as loss of lustrous hair at 40 mg/kg, ip bid for 7 days", "type": "organism-based", "settings": "in vivo, 168 h, time 7 day"}, "[13]": {"assay": "Toxicity in BALB/c mouse assessed as smooth hair at <15 mg/kg, ip bid for 7 days", "type": "organism-based", "settings": "in vivo, 168 h, time 7 day"}, "[14]": {"assay": "Toxicity in KM mouse assessed as change in albumin level at 20 mg/kg, sc measured after 24 hrs", "type": "organism-based", "settings": "in vivo"}, "Staphylococcus aureus [15]": {"tested_on": "Staphylococcus aureus", "assay": "Antibacterial activity against methicillin-resistant Staphylococcus aureus clinical isolate M16 by CLSI based micro-broth dilution method", "type": "functional"}, "Staphylococcus aureus [16]": {"tested_on": "Staphylococcus aureus", "assay": "Antibacterial activity against methicillin-resistant Staphylococcus aureus clinical isolate M12 incubated for 16 to 18 hrs in presence of peptidoglycan", "type": "functional", "settings": "time 16-18 hrs"}, "Staphylococcus aureus [17]": {"tested_on": "Staphylococcus aureus", "assay": "Antibacterial activity against methicillin-resistant Staphylococcus aureus clinical isolate M12 incubated for 16 to 18 hrs in presence of phosphatidylethanolamine", "type": "functional", "settings": "time 16-18 hrs"}, "[18]": {"assay": "Toxicity in KM mouse infected with methicillin-resistant Staphylococcus aureus clinical isolate M12 assessed as histopathological abnormality in heart at 5 to 10 mg/kg, sc measured after 24 hrs by H and E staining based analysis", "type": "organism-based", "settings": "in vivo, dose 5-10 mg/kg"}, "Staphylococcus aureus [19]": {"tested_on": "Staphylococcus aureus", "assay": "Antibacterial activity against methicillin-resistant Staphylococcus aureus clinical isolate M12 infected in KM mouse assessed as decrease in bacterial survival rate at 5 mg/kg, sc measured after 24 hrs by drop-plate counting method relative to control", "type": "functional"}, "Staphylococcus aureus [20]": {"tested_on": "Staphylococcus aureus", "assay": "Induction of membrane permeability in methicillin-resistant Staphylococcus aureus clinical isolate M12 at 8 to 32 times MIC measured every 2 mins for 10 times by SYTOX Green dye based analysis", "type": "functional, organism-based"}, "[21]": {"assay": "Toxicity in KM mouse assessed as animal survival at 5 to 80 mg/kg, sc", "type": "organism-based", "settings": "in vivo, dose 5-80 mg/kg"}, "Staphylococcus aureus [22]": {"tested_on": "Staphylococcus aureus", "assay": "Antibacterial activity against methicillin-resistant Staphylococcus aureus clinical isolate M12 infected in KM mouse assessed as decrease in erythematous pustules in intradermal tissues at 5 mg/kg, sc measured after 24 hrs", "type": "functional, organism-based"}, "[23]": {"assay": "Toxicity in KM mouse infected with methicillin-resistant Staphylococcus aureus clinical isolate M12 assessed as damage in spleen at 5 to 10 mg/kg, sc measured after 24 hrs by H and E staining based analysis", "type": "organism-based", "settings": "in vivo, dose 5-10 mg/kg"}, "[24]": {"assay": "Toxicity in KM mouse assessed as intact structure in skin layers at 20 mg/kg, sc measured after 24 hrs by H and E staining based analysis", "type": "organism-based", "settings": "in vivo"}, "[25]": {"assay": "Toxicity in KM mouse assessed as inflammatory cell infiltration in hepatocytes at 20 mg/kg, sc measured after 24 hrs by H and E staining based analysis", "type": "organism-based", "settings": "in vivo"}, "[26]": {"assay": "Toxicity in BALB/c mouse assessed as edema in hepatocytes at 15 mg/kg, ip bid for 7 days", "type": "organism-based", "settings": "in vivo, 168 h, time 7 day"}, "[27]": {"assay": "Toxicity in KM mouse assessed as edema in cardiac muscle fibers at 20 mg/kg, sc measured after 24 hrs by H and E staining based analysis", "type": "organism-based", "settings": "in vivo"}, "[28]": {"assay": "Toxicity in KM mouse assessed as inflammatory cells in skin section at 20 mg/kg, sc measured after 24 hrs by H and E staining based analysis", "type": "organism-based", "settings": "in vivo"}, "Staphylococcus aureus [29]": {"tested_on": "Staphylococcus aureus", "assay": "Disruption of cell membrane in methicillin-resistant Staphylococcus aureus clinical isolate M12 assessed as fold increase in protein leakage at 8 times MIC incubated for 4 hrs by BCA assay relative to control", "type": "functional"}, "Staphylococcus aureus [30]": {"tested_on": "Staphylococcus aureus", "assay": "Antibacterial activity against methicillin-resistant Staphylococcus aureus clinical isolate M12 infected in KM mouse assessed as smooth skin at infection site at 10 mg/kg, sc measured after 24 hrs", "type": "functional, organism-based"}, "Staphylococcus aureus [31]": {"tested_on": "Staphylococcus aureus", "assay": "Antibacterial activity against methicillin-resistant Staphylococcus aureus clinical isolate M12 infected in sepsis BALB/c mouse model assessed as decrease in necrosis in hepatocytes at 6 mg/kg, ip administered consecutively at 12 hr-interval for 24 hrs measured after 24 hrs post-last dose by H and E staining based analysis", "type": "functional, organism-based", "settings": "time 48.0 hrs"}, "[32]": {"assay": "Toxicity in BALB/c mouse assessed as pathological change in red medulla of spleen at 15 mg/kg, ip bid for 7 days", "type": "organism-based", "settings": "in vivo, 168 h, time 7 day"}, "Staphylococcus aureus [33]": {"tested_on": "Staphylococcus aureus", "assay": "Bactericidal activity against Staphylococcus aureus ATCC 29213 assessed as inhibition of bacterial growth at 4 times MIC incubated upto 8 hrs by time-kill assay", "type": "functional, organism-based"}, "Staphylococcus aureus [34]": {"tested_on": "Staphylococcus aureus", "assay": "Induction of membrane depolarization in methicillin-resistant Staphylococcus aureus clinical isolate M12 at 32 times MIC measured for 10 mins by DiSC3(5) dye based analysis", "type": "functional, organism-based"}}, "note": "Activity calls are given as the source filed them. The rule behind the calls is not given here."}
{"smiles": "C=CCc1cc(-c2ccc(OCCC[N+](C)(C)CC(=O)NCCCC)c(CC=C)c2)c2oc(=S)n(Cc3ccc(F)cc3)c2c1.[Br-]", "values": [{"measurement": "MIC", "setting": "Staphylococcus aureus [1]", "result": 2, "unit": "µg/mL"}, {"measurement": "Activity", "setting": "[2]", "result": "Non-Toxic"}, {"measurement": "Activity", "setting": "Staphylococcus aureus [3]", "result": "Active"}, {"measurement": "Activity", "setting": "[4]", "result": "Non-Toxic"}, {"measurement": "Activity", "setting": "Staphylococcus aureus [5]", "result": "Active"}, {"measurement": "Activity", "setting": "[6]", "result": "Non-Toxic"}, {"measurement": "Activity", "setting": "[7]", "result": "Non-Toxic"}, {"measurement": "Activity", "setting": "Staphylococcus aureus [8]", "result": 1.62, "unit": "log10CFU/g"}, {"measurement": "Activity", "setting": "[9]", "result": "Non-Toxic"}, {"measurement": "Activity", "setting": "[10]", "result": "Non-Toxic"}, {"measurement": "Activity", "setting": "[11]", "result": "Non-Toxic"}, {"measurement": "Activity", "setting": "[12]", "result": "Toxic"}, {"measurement": "Activity", "setting": "[13]", "result": "Non-Toxic"}, {"measurement": "Activity", "setting": "[14]", "result": "Non-Toxic"}, {"measurement": "MIC", "setting": "Staphylococcus aureus [15]", "result": 2, "unit": "µg/mL"}, {"measurement": "MIC", "setting": "Staphylococcus aureus [16]", "result": 2, "unit": "µg/mL"}, {"measurement": "MIC", "setting": "Staphylococcus aureus [17]", "result": 2, "unit": "µg/mL"}, {"measurement": "Activity", "setting": "[18]", "result": "Non-Toxic"}, {"measurement": "Activity", "setting": "Staphylococcus aureus [19]", "result": 92.72, "unit": "%"}, {"measurement": "Activity", "setting": "Staphylococcus aureus [20]", "result": "Active"}, {"measurement": "Activity", "setting": "[21]", "result": "Non-Toxic"}, {"measurement": "Activity", "setting": "Staphylococcus aureus [22]", "result": "inactive"}, {"measurement": "Activity", "setting": "[23]", "result": "Non-Toxic"}, {"measurement": "Activity", "setting": "[24]", "result": "Non-Toxic"}, {"measurement": "Activity", "setting": "[25]", "result": "Non-Toxic"}, {"measurement": "Activity", "setting": "[26]", "result": "Non-Toxic"}, {"measurement": "Activity", "setting": "[27]", "result": "Non-Toxic"}, {"measurement": "Activity", "setting": "[28]", "result": "Non-Toxic"}, {"measurement": "fold change (FC)", "setting": "Staphylococcus aureus [29]", "result": "~4"}, {"measurement": "Activity", "setting": "Staphylococcus aureus [30]", "result": "Active"}, {"measurement": "Activity", "setting": "Staphylococcus aureus [31]", "result": "inactive"}, {"measurement": "Activity", "setting": "[32]", "result": "Non-Toxic"}, {"measurement": "Activity", "setting": "Staphylococcus aureus [33]", "result": "Active"}, {"measurement": "Activity", "setting": "Staphylococcus aureus [34]", "result": "Active"}]}
